Data taken from patent publication US20050123560A1, “High purity and water dispersible extract and formulations of larrea tridentata leaf resin, and methods of making and using the same” (priority 2003, published 2005).

Columns and labels:
[1] = animal studies, ingestion; cited from earlier work
[2] = Reduction of oxidized NDGA in methanolic solution by reducing agents, followed by chromatography; conditions: reducing agent at 100 mg/ml in methanolic solution of oxidized NDGA

**Q.** For `CC(Cc1ccc(O)c(O)c1)C(C)Cc1ccc(O)c(O)c1` (stereo not drawn) [NDGA, nordihydroguaiaretic acid], which kidney toxicity [1] is on record?
**A.** The kidney toxicity was “evidence of kidney toxicity”.

**Q.** For `O=C1O[C@H]([C@@H](O)CO)C(O)=C1O` [ascorbic acid], which “time to reduce oxidized NDGA” value [2] is on record?
**A.** Its value is “approximately 1 minute”.

**Q.** Which “NDGA quinone remaining by chromatography after reduction” value [2] does the source give for `O=S([O-])S(=O)[O-].[Na+].[Na+]` [sodium hydrosulfite] here?
**A.** The value was “still detectable”.
